We go through two compounds from ChEMBL document CHEMBL1770052, “Pharmacophore elucidation for a new series of 2-aryl-pyrazolo-triazolo-pyrimidines as potent human A3 adenosine receptor antagonists” (Bioorg Med Chem Lett, 2011).

The test concerns the target T1, Adenosine receptor A3 (Homo sapiens, UniProt P0DMS8).
T1 sequence (P0DMS8 whole entry): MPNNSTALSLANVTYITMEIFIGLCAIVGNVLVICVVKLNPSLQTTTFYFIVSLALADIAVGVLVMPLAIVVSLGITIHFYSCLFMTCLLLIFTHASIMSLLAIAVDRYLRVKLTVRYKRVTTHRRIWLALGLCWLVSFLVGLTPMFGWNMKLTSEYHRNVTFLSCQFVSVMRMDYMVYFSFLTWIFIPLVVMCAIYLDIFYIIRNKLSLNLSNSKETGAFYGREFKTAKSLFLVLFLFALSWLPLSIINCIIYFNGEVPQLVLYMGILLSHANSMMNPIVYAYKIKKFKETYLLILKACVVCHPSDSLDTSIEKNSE
The experiment in a line: Antagonist activity at human adenosine A3 receptor. In kind it is functional.

Regarding `O=C(Cc1ccccc1)Nc1nc2nn(CCc3ccccc3)cc2c2nc(-c3ccc(Cl)cc3)nn12`, the affinity corresponds to a Ki of 8.48 nM.

Consider `Cn1cc2c(nc(NC(=O)N[n+]3ccccc3)n3nc(-c4ccco4)nc23)n1`, for which the affinity, expressed as Ki, was 0.01 nM.
